The text below walks through data of article PMC8010461, “The acyltransferase PMAT1 malonylates brassinolide glucoside” (The Journal of Biological Chemistry, 2021).

Usually Km stands for the concentration of substrate that gives half-maximal velocity.

Data set [1] deals with T1, UGT73C5 (Arabidopsis thaliana, UniProt Q9ZQ94).
T1 construct: recombinant GST-tagged UGT73C5
T1 sequence (Q9ZQ94 1-495): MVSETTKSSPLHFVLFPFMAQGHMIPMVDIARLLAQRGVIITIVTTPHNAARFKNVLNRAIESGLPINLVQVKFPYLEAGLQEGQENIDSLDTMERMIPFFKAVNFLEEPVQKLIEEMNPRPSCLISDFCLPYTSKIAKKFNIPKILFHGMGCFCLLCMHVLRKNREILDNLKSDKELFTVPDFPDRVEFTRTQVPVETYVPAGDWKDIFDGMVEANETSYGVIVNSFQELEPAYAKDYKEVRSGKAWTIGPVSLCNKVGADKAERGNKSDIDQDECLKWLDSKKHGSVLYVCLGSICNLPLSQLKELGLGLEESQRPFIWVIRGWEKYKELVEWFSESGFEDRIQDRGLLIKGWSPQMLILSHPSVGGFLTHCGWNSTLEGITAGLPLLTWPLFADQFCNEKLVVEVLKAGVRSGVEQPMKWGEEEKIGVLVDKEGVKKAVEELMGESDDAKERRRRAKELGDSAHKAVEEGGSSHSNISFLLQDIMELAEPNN
Description: in vitro glucosylation, product confirmed by HR-MS and HR-MS/MS. Particulars: reference compound synthesis; glucosylation at C-23. The format is biochemical.

Data set [2] deals with T1, UGT73C5. Description: preparative in vitro glucosylation, product purified by HPLC. The format is biochemical. Particulars: co-substrate UDP-glucose; glucosylation at C-23.
Substrate in the data set “purified protein”: CC(C)[C@@H](C)[C@@H](O[C@@H]1O[C@H](CO)[C@@H](O)[C@H](O)[C@H]1O)[C@H](O)[C@@H](C)[C@H]1CC[C@H]2[C@@H]3COC(=O)[C@H]4C[C@H](O)[C@H](O)C[C@]4(C)[C@H]3CC[C@]12C
Description: purified protein. The class given is biochemical, Arabidopsis thaliana. Particulars: co-substrate malonyl-CoA 2.5 mM, 50 mM sodium phosphate pH 8.0, 30 °C.

Take `CC(C)[C@H](C)[C@@H](O)[C@H](O)[C@@H](C)[C@H]1CC[C@H]2[C@@H]3COC(=O)[C@H]4C[C@H](O)[C@H](O)C[C@]4(C)[C@H]3CC[C@]12C` [brassinolide]: at UGT73C5 [1], the “in vitro glucosylation, product confirmed by HR-MS and HR-MS/MS” value was “BL-23-O-MalGlc as analytical reference, which were generated in vitro with recombinant UGT73C5 and PMAT1”. For the molecule `CC(C)[C@@H](C)[C@@H](O)[C@H](O)[C@@H](C)[C@H]1CC[C@H]2[C@@H]3COC(=O)[C@H]4C[C@H](O)[C@H](O)C[C@]4(C)[C@H]3CC[C@]12C` [24-epiBL], the “preparative in vitro glucosylation, product purified by HPLC” value at UGT73C5 [2] was 24-epiBL (epiBL) as an acceptor were carried out, and the resulting epiBL-23-O-Glc was purified.

B1: At5MAT (Arabidopsis thaliana) (protein)
chain: MVNFNSAVNILEVVQVSPPSSNSLTLPLTYFDLGWLKLHPVDRVLFYHVPELTRSSLISKLKSSLSATLLHYLPLAGRLVWDSIKTKPSIVYSPDDKDAVYLTVAESNGDLSHLSGDEPRPATEFHSLVPELPVSDESARVLAVQVTFFPNQGFSLGVTAHHAVLDGKTTAMFLKAWAHNCKQEQEALPHDLVPSLDRIIVQDPTGLETKLLNRWISASNNKPSLKLFPSKIIGSDILRVTYRLTREDIKKLRERVETESHAKQLRLSTFVITYAYVITCMVKMRGGDPTRFVCVGFASDFRSRLNPPLPPTFFGNCIVGSGDFDVKAEPILEEGEGKGFITAVETLTGWVNGLCPENIEKNMLLPFEAFKRMEPGRQMISVAGSTRLGIYGSDFGWGKPVKVEIVTIDKDASVSLSESGDGSGGVEVGVCLKKDDVERFGSLFSIGLE
notes: full ORF, GST fusion (pGEX-4T-2-At5MAT), E. coli BL21, glutathione Sepharose purified; GST tag kept
On to B1, for which the Michaelis constant (Km) in “purified protein” (240 min) stood at 71 µM.

B2: PMAT1 (Arabidopsis thaliana) (protein)
chain: MVNEEMESSLKVIDVARVTPSNSDSSESLTLPLTFFDLLWYKLHAVERVIFYKLTDASRPFFDSVIVPNLKTSLSSSLSHYLPLAGKLVWEPLDPKPKIVYTPNDAVSFTVAESNADFSRLTGKEPFPTTELYPLVPELHVSDDSASAVSFQVTLFPNQGFCISVNAHHAVLDGKTTTNFLKSWARTCKNQDSFLPQDLIPVYDRTVIKDPMDLDTKILNAWHRVAKVFTGGKEPENPKSLKLLWSPEIGPDVFRYTLNLTREDIQKLRERLKKESSSSSVSSSPKELRLSTFVIVYSYALTCLIKARGGDPSRPVGYGFAVDCRSLMVPPVPSSYFGNCVSACFKMSLTAETFMSEEGFLAAARMVSDSVEALDENVALKIPEILEGFTTLSPGTQVLSVAGSTRFGVYGLDFGWGRPEKVVVVSIDQGEAISFAESRDGSGGVELGFSLKKHEMDVLVDLLHKGLEN
notes: full ORF, GST fusion (pGEX-4T-2-PMAT1), E. coli BL21, glutathione Sepharose purified; GST tag kept
Regarding B2, the Michaelis-Menten constant (Km) in the data set “purified protein” (20 min) came to 235 µM.
